The target of test [1] is T1, Discoidin domain-containing receptor 2 (Homo sapiens, UniProt Q16832).
T1 sequence (Q16832 whole entry): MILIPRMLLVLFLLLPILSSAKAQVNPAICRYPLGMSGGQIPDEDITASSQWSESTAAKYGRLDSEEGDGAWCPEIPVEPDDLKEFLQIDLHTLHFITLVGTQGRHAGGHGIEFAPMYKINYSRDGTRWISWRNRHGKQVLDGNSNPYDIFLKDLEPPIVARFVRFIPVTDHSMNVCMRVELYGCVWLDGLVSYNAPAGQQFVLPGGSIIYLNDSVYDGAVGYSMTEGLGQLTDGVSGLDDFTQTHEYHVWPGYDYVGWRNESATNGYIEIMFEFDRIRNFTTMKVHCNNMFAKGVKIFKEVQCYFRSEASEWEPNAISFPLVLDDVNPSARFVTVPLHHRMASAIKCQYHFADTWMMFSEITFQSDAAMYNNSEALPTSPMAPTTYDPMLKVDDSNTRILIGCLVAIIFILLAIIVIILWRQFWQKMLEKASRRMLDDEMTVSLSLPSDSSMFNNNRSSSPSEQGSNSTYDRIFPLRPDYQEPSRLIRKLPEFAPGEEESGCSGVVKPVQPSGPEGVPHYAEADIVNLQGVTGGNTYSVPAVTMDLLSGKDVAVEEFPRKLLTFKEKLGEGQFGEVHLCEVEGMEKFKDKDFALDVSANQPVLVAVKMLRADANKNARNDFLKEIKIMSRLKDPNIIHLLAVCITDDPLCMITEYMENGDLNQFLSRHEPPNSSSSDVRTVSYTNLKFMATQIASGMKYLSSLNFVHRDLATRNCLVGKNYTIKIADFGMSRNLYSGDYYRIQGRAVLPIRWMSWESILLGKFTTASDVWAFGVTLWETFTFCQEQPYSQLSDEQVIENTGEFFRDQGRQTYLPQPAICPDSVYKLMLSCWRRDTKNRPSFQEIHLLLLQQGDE
Put plainly: DDR1 and DDR2 Biochemical Assay. On the procedure: (§1) The capacity of compounds to bind to DDR1 and DDR2 was quantified using a LanthaScreen Eu Kinase Binding Assay. Recombinant human DDR1 (2.5 nM; aa440-876 containing a GST tag) and DDR2 (1.75 nM; aa427-855 containing a GST tag) were diluted in assay buffer (50 mM HEPES pH7.3, 10 mM MgCl2, 1 mM EGTA and 0.01% Tween) with various concentrations of compound in a 384-well plate and a volume of 5 uL. After a 30-minute incubation at room temperature, 2.5 uL of Eu-anti GST antibody (diluted to 1 nM in assay buffer) plus Kinase Tracer 178 (diluted in assay buffer to 5 nM for DDR1 and 10 nM for DDR2) were added to the plate. Following 60-minute incubation at room temperature, time-resolved fluorescence was measured on a BMG Labtech PHERAstar plate reader. DMSO (1%) and reference compound (1 μM) were used to generate the Max and Min assay signals, respectively. Data was analysed using a four-parameter logistic model to calculate IC50 values, with at least two independent replicates were performed for each compound.

Test [2] addresses Epithelial discoidin domain-containing receptor 1 (Homo sapiens, UniProt Q08345). The test can be described thus: DDR1 and DDR2 Biochemical Assay. On the procedure: as §1

pIC50: −log10 of the molar value.

The values that follow come from BindingDB's records for patent US20260055102 (Redx Pharma, 2026).

Usually pIC50 stands for −log10 of the IC50, conventionally taken in molar units. A lower pIC50 goes with a large IC50.

Chain of Epithelial discoidin domain-containing receptor 1 (Q08345 whole entry, the tested form may be a part): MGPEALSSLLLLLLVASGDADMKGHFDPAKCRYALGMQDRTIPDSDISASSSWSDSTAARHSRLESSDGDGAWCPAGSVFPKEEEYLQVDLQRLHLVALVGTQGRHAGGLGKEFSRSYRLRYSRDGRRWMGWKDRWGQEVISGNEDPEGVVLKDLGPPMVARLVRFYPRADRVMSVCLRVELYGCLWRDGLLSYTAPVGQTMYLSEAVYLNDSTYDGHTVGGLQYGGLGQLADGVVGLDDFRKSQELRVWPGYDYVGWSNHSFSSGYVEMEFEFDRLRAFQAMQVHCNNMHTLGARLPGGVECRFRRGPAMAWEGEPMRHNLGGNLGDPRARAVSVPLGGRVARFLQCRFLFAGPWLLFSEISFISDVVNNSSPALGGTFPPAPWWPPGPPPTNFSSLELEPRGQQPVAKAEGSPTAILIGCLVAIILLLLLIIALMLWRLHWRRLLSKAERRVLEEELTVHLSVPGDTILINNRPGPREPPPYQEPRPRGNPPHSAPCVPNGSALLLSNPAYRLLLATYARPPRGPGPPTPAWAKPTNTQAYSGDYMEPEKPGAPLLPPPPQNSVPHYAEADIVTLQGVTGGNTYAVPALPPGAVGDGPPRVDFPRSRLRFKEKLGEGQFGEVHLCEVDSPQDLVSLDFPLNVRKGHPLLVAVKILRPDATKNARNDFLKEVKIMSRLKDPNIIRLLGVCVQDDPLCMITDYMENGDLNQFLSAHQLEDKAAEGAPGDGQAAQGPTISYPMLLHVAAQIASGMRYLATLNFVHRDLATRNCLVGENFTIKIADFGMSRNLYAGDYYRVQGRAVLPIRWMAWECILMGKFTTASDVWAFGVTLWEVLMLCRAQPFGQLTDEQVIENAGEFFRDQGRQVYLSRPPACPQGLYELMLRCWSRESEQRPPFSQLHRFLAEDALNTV

Turning to `Cc1cccc2c1n(-c1ccc(-c3cncc4c3cnn4C)cc1)c(=O)n2CC(=O)N1CCC[C@H]1CF` [US20260055102, Example 26], the pIC50 in test [1] is below 6.00.
`Cc1cccc2c1n(-c1ccc(-c3cncc4c3cnn4C)cn1)c(=O)n2CC(=O)N1CCO[C@H](C(F)(F)F)C1` [US20260055102, Example 61]: the pIC50 in test [2] was above 8.00.
In test [1], `CN(C)c1cccc2c1n(-c1ccc(-c3cncc4c3cnn4C)cc1)c(=O)n2CC(=O)NCC(F)(F)F` [US20260055102, Example 80] showed a pIC50 below 6.00.
Turning to `Cc1nc(-n2c(=O)n(CC(=O)NCC(F)(F)F)c3cccc(C)c32)cnc1-c1cncc2c1cnn2C` [US20260055102, Example 100], the pIC50 in test [2] and in test [1] was below 6.00 each time.
